# Results as given in ChEMBL document CHEMBL3885861, “Open TG-GATES”.
# Species on record: Rattus norvegicus
# Assay: Open TG-GATES - Regimen: Daily Repeat
# Type: toxicity, organism-based, Sprague-Dawley
# Parameters: regimen Daily Repeat, gender Male, age 6 weeks
# Conditions: in vivo, po, 300 mg/kg, route gavage, dose level Low; for Bas / Eos / Hb / Ht / Lym / MCH / MCHC / MCV / Mono / Neu / Plat / RBC / Ret / WBC: tissue Blood; for KIDNEY_L / KIDNEY_R / KIDNEY_TOTAL: tissue Kidney; for LIVER: tissue Liver; for A/G / ALP / ALT / AST / BUN / CRE / Ca / Cl / DBIL / GLC / IP / K / LDH / Na / PL / RALB / TBIL / TC / TG / TP / gamma-GTP: tissue Plasma
structure (smiles),measurement,setting,value
CC(N)=O [ACETAMIDE],TERMINAL_BW,"72 h, time 3 day",239.9 g
same,Bas,"72 h, time 3 day",0%
same,Eos,"72 h, time 3 day",0.8%
same,Hb,"72 h, time 3 day",12.4 g/dL
same,Ht,"72 h, time 3 day",38.3%
same,Lym,"72 h, time 3 day",75.8%
same,MCH,"72 h, time 3 day",20.5 pg
same,MCHC,"72 h, time 3 day",32.5%
same,MCV,"72 h, time 3 day",63 fL
same,Mono,"72 h, time 3 day",3.4%
same,Neu,"72 h, time 3 day",19.4%
same,Plat,"72 h, time 3 day",135.2 x10_4/uL
same,RBC,"72 h, time 3 day",608.2 x10_4/ul
same,Ret,"72 h, time 3 day",8.2%
same,WBC,"72 h, time 3 day",104.5 x10_2/uL
same,KIDNEY_L,"72 h, time 3 day",1 g
same,KIDNEY_R,"72 h, time 3 day",1 g
same,KIDNEY_TOTAL,"72 h, time 3 day",2.1 g
same,LIVER,"72 h, time 3 day",11.3 g
same,A/G,"72 h, time 3 day",1
same,ALP,"72 h, time 3 day",2008.8 IU/L
same,ALT,"72 h, time 3 day",36.4 IU/L
same,AST,"72 h, time 3 day",65.4 IU/L
same,BUN,"72 h, time 3 day",17.6 mg/dL
same,CRE,"72 h, time 3 day",0.1 mg/dL
same,Ca,"72 h, time 3 day",10.8 mg/dL
same,Cl,"72 h, time 3 day",103.4 meq/L
same,DBIL,"72 h, time 3 day",0.002 mg/dL
same,GLC,"72 h, time 3 day",184.6 mg/dL
same,IP,"72 h, time 3 day",6.6 mg/dL
same,K,"72 h, time 3 day",4.5 meq/L
same,LDH,"72 h, time 3 day",138.4 IU/L
same,Na,"72 h, time 3 day",139.5 meq/L
same,PL,"72 h, time 3 day",157.2 mg/dL
same,RALB,"72 h, time 3 day",2.8 g/dL
same,TBIL,"72 h, time 3 day",0.006 mg/dL
same,TC,"72 h, time 3 day",80.4 mg/dL
same,TG,"72 h, time 3 day",137.5 mg/dL
same,TP,"72 h, time 3 day",5.5 g/dL
same,gamma-GTP,"72 h, time 3 day",0.8 IU/L
same,TERMINAL_BW,"[…], time 7 day",271.7 g
same,TERMINAL_BW,"[…], time 14 day",327.7 g
same,TERMINAL_BW,"[…], time 28 day",432.9 g
same,Bas,"[…], time 7 day",0%
same,Eos,"[…], time 7 day",0.8%
same,Hb,"[…], time 7 day",12.5 g/dL
same,Ht,"[…], time 7 day",38.3%
same,Lym,"[…], time 7 day",76.4%
same,MCH,"[…], time 7 day",19.8 pg
same,MCHC,"[…], time 7 day",32.7%
same,MCV,"[…], time 7 day",60.6 fL
same,Mono,"[…], time 7 day",3.4%
same,Neu,"[…], time 7 day",18.4%
same,Plat,"[…], time 7 day",115.7 x10_4/uL
same,RBC,"[…], time 7 day",631.6 x10_4/ul
same,Ret,"[…], time 7 day",6.4%
same,WBC,"[…], time 7 day",120.4 x10_2/uL
same,Bas,"[…], time 14 day",0%
same,Eos,"[…], time 14 day",1%
same,Hb,"[…], time 14 day",13.2 g/dL
same,Ht,"[…], time 14 day",39.9%
same,Lym,"[…], time 14 day",76.8%
same,MCH,"[…], time 14 day",19.6 pg
same,MCHC,"[…], time 14 day",33.2%
same,MCV,"[…], time 14 day",59.2 fL
same,Mono,"[…], time 14 day",2.8%
same,Neu,"[…], time 14 day",19%
same,Plat,"[…], time 14 day",105.9 x10_4/uL
same,RBC,"[…], time 14 day",674.2 x10_4/ul
same,Ret,"[…], time 14 day",4.8%
same,WBC,"[…], time 14 day",126.4 x10_2/uL
same,Bas,"[…], time 28 day",0%
same,Eos,"[…], time 28 day",1%
same,Hb,"[…], time 28 day",14.1 g/dL
same,Ht,"[…], time 28 day",42.1%
same,Lym,"[…], time 28 day",77.8%
same,MCH,"[…], time 28 day",19.1 pg
same,MCHC,"[…], time 28 day",33.5%
same,MCV,"[…], time 28 day",57.1 fL
same,Mono,"[…], time 28 day",2.4%
same,Neu,"[…], time 28 day",17.8%
same,Plat,"[…], time 28 day",111 x10_4/uL
same,RBC,"[…], time 28 day",737.8 x10_4/ul
same,Ret,"[…], time 28 day",3.2%
same,WBC,"[…], time 28 day",165 x10_2/uL
same,KIDNEY_L,"[…], time 7 day",1.1 g
same,KIDNEY_R,"[…], time 7 day",1.1 g
same,KIDNEY_TOTAL,"[…], time 7 day",2.2 g
same,KIDNEY_L,"[…], time 14 day",1.3 g
same,KIDNEY_R,"[…], time 14 day",1.3 g
same,KIDNEY_TOTAL,"[…], time 14 day",2.6 g
same,KIDNEY_L,"[…], time 28 day",1.5 g
same,KIDNEY_R,"[…], time 28 day",1.5 g
same,KIDNEY_TOTAL,"[…], time 28 day",3 g
same,LIVER,"[…], time 7 day",12.8 g
same,LIVER,"[…], time 14 day",14.1 g
same,LIVER,"[…], time 28 day",17.3 g
same,A/G,"[…], time 7 day",0.9
same,ALP,"[…], time 7 day",1504 IU/L
same,ALT,"[…], time 7 day",39.4 IU/L
same,AST,"[…], time 7 day",73.4 IU/L
same,BUN,"[…], time 7 day",19.4 mg/dL
same,CRE,"[…], time 7 day",0.2 mg/dL
same,Ca,"[…], time 7 day",10.5 mg/dL
same,Cl,"[…], time 7 day",104.1 meq/L
same,DBIL,"[…], time 7 day",0 mg/dL
same,GLC,"[…], time 7 day",187.4 mg/dL
same,IP,"[…], time 7 day",6.3 mg/dL
same,K,"[…], time 7 day",4.7 meq/L
same,LDH,"[…], time 7 day",205.8 IU/L
same,Na,"[…], time 7 day",141.3 meq/L
same,PL,"[…], time 7 day",149.6 mg/dL
same,RALB,"[…], time 7 day",2.8 g/dL
same,TBIL,"[…], time 7 day",0 mg/dL
same,TC,"[…], time 7 day",72 mg/dL
same,TG,"[…], time 7 day",141.8 mg/dL
same,TP,"[…], time 7 day",5.8 g/dL
same,gamma-GTP,"[…], time 7 day",0.5 IU/L
same,A/G,"[…], time 14 day",0.9
same,ALP,"[…], time 14 day",1341.2 IU/L
same,ALT,"[…], time 14 day",34.4 IU/L
same,AST,"[…], time 14 day",68.6 IU/L
same,BUN,"[…], time 14 day",17.7 mg/dL
same,CRE,"[…], time 14 day",0.2 mg/dL
same,Ca,"[…], time 14 day",10.4 mg/dL
same,Cl,"[…], time 14 day",104.9 meq/L
same,DBIL,"[…], time 14 day",0 mg/dL
same,GLC,"[…], time 14 day",197.4 mg/dL
same,IP,"[…], time 14 day",6.3 mg/dL
same,K,"[…], time 14 day",4.4 meq/L
same,LDH,"[…], time 14 day",244 IU/L
same,Na,"[…], time 14 day",141.1 meq/L
same,PL,"[…], time 14 day",147.4 mg/dL
same,RALB,"[…], time 14 day",2.8 g/dL
same,TBIL,"[…], time 14 day",0.002 mg/dL
same,TC,"[…], time 14 day",71.2 mg/dL
same,TG,"[…], time 14 day",132 mg/dL
same,TP,"[…], time 14 day",5.8 g/dL
same,gamma-GTP,"[…], time 14 day",0.7 IU/L
same,A/G,"[…], time 28 day",0.9
same,ALP,"[…], time 28 day",1160.4 IU/L
same,ALT,"[…], time 28 day",41.2 IU/L
same,AST,"[…], time 28 day",75.8 IU/L
same,BUN,"[…], time 28 day",20.1 mg/dL
same,CRE,"[…], time 28 day",0.2 mg/dL
same,Ca,"[…], time 28 day",10.5 mg/dL
same,Cl,"[…], time 28 day",104.1 meq/L
same,DBIL,"[…], time 28 day",0.004 mg/dL
same,GLC,"[…], time 28 day",211.2 mg/dL
same,IP,"[…], time 28 day",6.3 mg/dL
same,K,"[…], time 28 day",4.3 meq/L
same,LDH,"[…], time 28 day",256 IU/L
same,Na,"[…], time 28 day",141.8 meq/L
same,PL,"[…], time 28 day",158.6 mg/dL
same,RALB,"[…], time 28 day",2.8 g/dL
same,TBIL,"[…], time 28 day",0 mg/dL
same,TC,"[…], time 28 day",77 mg/dL
same,TG,"[…], time 28 day",175.1 mg/dL
same,TP,"[…], time 28 day",6 g/dL
same,gamma-GTP,"[…], time 28 day",0.9 IU/L
